Measured values as given in patent publication US20180353462A1, “[…] AGENTS […] FLAVONOID DERIVATIVES TARGETING KINASES, SIRTUINS AND ONCOGENIC AGENTS FOR THE TREATMENT OF CANCERS” (priority 2015, published 2018).

How the values were obtained:
[1] = test system: COLO-205 (Colon); experiment: WST-1 anticancer cell proliferation assay, COLO-205; format: cell-based; conditions: 72 hours
Description: (§1) Bioactivity of the above-described compounds has been verified by an anticancer cell proliferation assay using the WST-1 (4-[3-(4-iodophenyl)-2-(4-nitrophenyl)-2H-5-tetrazolio]-1, 3-benzene disulfonate) colorimetric assay by Roche Life Sciences®. Anticancer activity was tested against several standard cancer cell lines including brain, breast, Kaposi sarcoma, leukemia, lung, melanoma, tenosynovial giant cell tumor, ovarian, pancreatic, colon and prostate cancer. Cells were trypsinized and plated into 96 well plates in 50 μl of media and incubated overnight. The next day approximately 18 hours after plating, 50 μl of media containing the required flavonoid-based pharmaceutical composition was added per well. Cells were plated at a density so that 72 hours post drug addition, the cells will be in log phase (500)-2000 cells/well). The compounds and extracts were solubilized in Dimethyl sulfoxide (DMSO). The cells are allowed to proliferate for 72 hours 37° C. in humidified atmosphere of 5% CO2. The experiment is terminated using WST-1 (Roche®) 10 μl per well and absorbance is read at 450 nm %690 nm. The effect of drugs on growth is assessed as percent of cell viability. The IC50 values were determined from the extract dose versus control growth curves using Graphpad Prism® software. All experiments were carried out in duplicate and the mean results determined.

[2] = test system: IGROV-1 (Ovarian); experiment: WST-1 anticancer cell proliferation assay, IGROV-1; format: cell-based; conditions: 72 hours
Description: as §1

[3] = test system: MiaPaca-2 (Pancreatic); experiment: WST-1 anticancer cell proliferation assay, MiaPaca-2; format: cell-based; conditions: 72 hours
Description: as §1

[4] = biological target: BRD4 (Homo sapiens, UniProt O60885); experiment: Inhibition of bromodomains, BRD4; format: binding; conditions: Table 3 Bromodomain
Excerpt: (§2) Inhibition of Sirtuins, Matrix Metalloproteinase, Bromodomains was Also Confirmed Using Standard Protocols and the Results are Present in Table 2.

[5] = test system: MOLT-4 (Leukemia); experiment: WST-1 anticancer cell proliferation assay, MOLT-4; format: cell-based; conditions: 72 hours
Description: as §1

[6] = test system: U2-OS (Bone); experiment: WST-1 anticancer cell proliferation assay, U2-OS; format: cell-based; conditions: 72 hours
Description: as §1

[7] = biological target: MMP-2 (Homo sapiens, UniProt P08253); experiment: Inhibition of matrix metalloproteinase, MMP-2; format: biochemical; conditions: Table 3 Matrix metalloproteinase
Excerpt: as §2

[8] = test system: HeLa (cervical); experiment: WST-1 anticancer cell proliferation assay, HeLa; format: cell-based; conditions: 72 hours
Description: as §1

[9] = test system: CMK (leukemia); experiment: WST-1 anticancer cell proliferation assay, CMK; format: cell-based; conditions: 72 hours
Description: as §1

[10] = biological target: BRD3 (Homo sapiens, UniProt Q15059); experiment: Inhibition of bromodomains, BRD3; format: binding; conditions: Table 3 Bromodomain
Excerpt: as §2

[11] = test system: CFPAC-1 pancreatic cancer xenograft; experiment: Human pancreatic cancer xenograft CFPAC-1 in scid mice; format: in vivo; conditions: CFPAC-1 cells implanted on scid mice
Excerpt: The results of the anticancer activity are presented in Tables 3 and 4 (above) and in FIG. 6, Hela cells shown at (A) and CMK cells at (B) and MV4-11 and MOLT-14 acute myeloid leukemia cells.

[12] = biological target: BRD2 (Homo sapiens, UniProt P25440); experiment: Inhibition of bromodomains, BRD2; format: binding; conditions: Table 3 Bromodomain
Excerpt: as §2

[13] = test system: SNU-16 (Stomach); experiment: WST-1 anticancer cell proliferation assay, SNU-16; format: cell-based; conditions: 72 hours
Description: as §1

[14] = biological target: BCL-2 (Homo sapiens, UniProt P10415); experiment: BCL-2 inhibition; format: binding; conditions: Table 3
[15] = biological target: MMP-3 (Homo sapiens, UniProt P08254); experiment: Inhibition of matrix metalloproteinase, MMP-3; format: biochemical; conditions: Table 3 Matrix metalloproteinase
Excerpt: as §2

[16] = biological target: MMP-9 (Homo sapiens, UniProt P14780); experiment: Inhibition of matrix metalloproteinase, MMP-9; format: biochemical; conditions: Table 3 Matrix metalloproteinase
Excerpt: as §2

BRD2, sequence (P25440 whole entry): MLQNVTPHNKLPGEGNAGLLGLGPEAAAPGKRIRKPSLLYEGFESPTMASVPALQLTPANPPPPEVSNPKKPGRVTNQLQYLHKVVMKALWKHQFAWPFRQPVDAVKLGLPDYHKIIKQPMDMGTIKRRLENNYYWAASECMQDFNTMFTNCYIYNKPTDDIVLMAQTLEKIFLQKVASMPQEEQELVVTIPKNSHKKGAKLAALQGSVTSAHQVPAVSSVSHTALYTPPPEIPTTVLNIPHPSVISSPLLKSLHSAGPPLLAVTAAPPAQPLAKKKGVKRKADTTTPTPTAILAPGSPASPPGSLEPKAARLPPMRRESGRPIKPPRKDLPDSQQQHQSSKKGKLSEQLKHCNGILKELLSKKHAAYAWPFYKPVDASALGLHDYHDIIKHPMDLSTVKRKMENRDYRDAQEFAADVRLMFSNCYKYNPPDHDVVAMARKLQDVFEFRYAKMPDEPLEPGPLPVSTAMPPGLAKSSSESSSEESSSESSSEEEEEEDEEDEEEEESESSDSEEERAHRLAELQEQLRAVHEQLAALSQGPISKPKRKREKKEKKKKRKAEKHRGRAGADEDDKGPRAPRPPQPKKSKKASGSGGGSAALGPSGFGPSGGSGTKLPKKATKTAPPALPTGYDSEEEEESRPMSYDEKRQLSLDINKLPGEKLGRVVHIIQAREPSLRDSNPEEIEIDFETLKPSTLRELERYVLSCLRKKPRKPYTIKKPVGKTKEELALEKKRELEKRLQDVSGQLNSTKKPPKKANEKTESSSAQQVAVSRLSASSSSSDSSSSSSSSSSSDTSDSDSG
BRD3, sequence (Q15059 whole entry): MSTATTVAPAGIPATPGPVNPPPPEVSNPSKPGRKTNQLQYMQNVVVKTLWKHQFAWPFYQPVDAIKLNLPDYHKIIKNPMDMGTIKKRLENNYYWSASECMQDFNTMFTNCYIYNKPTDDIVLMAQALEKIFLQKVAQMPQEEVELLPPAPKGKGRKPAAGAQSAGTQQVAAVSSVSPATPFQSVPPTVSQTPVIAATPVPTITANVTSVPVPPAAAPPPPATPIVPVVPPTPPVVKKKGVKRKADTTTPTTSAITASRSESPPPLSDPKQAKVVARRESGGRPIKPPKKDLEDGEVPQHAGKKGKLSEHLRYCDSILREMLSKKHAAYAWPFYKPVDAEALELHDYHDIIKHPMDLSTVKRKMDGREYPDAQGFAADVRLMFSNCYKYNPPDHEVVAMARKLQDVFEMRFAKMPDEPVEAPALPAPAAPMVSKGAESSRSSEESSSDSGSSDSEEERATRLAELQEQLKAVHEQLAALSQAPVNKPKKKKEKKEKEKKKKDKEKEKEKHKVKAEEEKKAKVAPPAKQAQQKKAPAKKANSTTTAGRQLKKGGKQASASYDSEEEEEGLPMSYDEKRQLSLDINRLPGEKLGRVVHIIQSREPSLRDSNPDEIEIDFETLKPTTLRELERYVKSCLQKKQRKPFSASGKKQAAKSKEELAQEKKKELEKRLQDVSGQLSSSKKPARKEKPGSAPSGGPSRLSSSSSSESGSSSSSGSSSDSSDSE
MMP-2, sequence (P08253 110-660): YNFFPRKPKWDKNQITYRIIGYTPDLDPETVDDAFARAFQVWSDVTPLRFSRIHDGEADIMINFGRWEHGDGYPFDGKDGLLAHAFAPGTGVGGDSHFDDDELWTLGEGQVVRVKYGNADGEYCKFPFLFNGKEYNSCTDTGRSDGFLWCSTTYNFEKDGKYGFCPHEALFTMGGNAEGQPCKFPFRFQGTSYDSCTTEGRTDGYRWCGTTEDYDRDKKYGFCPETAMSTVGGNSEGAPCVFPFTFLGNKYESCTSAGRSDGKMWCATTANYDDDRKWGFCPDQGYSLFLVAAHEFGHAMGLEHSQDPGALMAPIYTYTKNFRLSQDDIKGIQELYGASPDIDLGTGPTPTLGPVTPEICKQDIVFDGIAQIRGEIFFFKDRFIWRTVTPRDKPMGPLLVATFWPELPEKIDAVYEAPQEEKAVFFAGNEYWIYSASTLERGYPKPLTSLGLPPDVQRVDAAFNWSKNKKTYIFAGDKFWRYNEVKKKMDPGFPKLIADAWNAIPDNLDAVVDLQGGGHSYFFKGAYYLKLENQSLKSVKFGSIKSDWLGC
MMP-3, sequence (P08254 100-477): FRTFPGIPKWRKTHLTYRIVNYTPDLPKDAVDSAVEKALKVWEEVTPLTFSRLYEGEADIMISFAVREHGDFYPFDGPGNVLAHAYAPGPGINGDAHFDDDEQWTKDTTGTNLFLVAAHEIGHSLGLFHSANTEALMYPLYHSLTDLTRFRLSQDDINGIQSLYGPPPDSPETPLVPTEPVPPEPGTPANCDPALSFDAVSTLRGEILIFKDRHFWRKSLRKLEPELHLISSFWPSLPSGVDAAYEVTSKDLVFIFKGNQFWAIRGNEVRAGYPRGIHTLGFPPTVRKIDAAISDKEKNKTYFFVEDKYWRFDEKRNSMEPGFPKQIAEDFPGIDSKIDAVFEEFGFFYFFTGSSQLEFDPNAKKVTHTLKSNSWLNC
MMP-9, sequence (P14780 94-707): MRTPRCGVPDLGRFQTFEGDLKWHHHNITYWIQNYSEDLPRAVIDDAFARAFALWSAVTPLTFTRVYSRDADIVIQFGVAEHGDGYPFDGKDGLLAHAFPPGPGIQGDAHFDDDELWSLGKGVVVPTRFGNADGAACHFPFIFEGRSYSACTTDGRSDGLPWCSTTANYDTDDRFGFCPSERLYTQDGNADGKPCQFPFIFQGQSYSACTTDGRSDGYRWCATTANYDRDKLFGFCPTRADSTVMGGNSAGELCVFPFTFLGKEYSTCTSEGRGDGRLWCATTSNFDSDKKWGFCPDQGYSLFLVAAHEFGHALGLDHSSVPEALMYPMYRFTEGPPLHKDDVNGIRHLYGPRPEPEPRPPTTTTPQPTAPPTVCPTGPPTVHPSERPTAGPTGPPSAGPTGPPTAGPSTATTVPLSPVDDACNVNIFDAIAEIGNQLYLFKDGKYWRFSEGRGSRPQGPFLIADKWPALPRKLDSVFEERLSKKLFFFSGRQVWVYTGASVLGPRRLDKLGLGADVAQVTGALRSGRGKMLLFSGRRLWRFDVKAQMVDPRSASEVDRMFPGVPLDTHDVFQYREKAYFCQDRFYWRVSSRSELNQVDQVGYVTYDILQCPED
BCL-2, sequence (P10415 whole entry): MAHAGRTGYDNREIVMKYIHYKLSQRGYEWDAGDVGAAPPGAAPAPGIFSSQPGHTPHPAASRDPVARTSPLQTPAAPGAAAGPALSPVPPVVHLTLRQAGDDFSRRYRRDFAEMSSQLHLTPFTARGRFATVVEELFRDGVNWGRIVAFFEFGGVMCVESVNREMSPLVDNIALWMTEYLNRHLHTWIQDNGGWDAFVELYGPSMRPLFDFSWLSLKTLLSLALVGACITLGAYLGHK

SMILES | IC50 [1] [µM] | IC50 [2] [µM] | IC50 [3] [µM] | IC50 [4] [µM] | IC50 [5] [µM] | IC50 [6] [µM] | IC50 [7] [µM] | IC50 [8] [µM] | IC50 [9] [µM] | IC50 [10] [µM] | inhibition of tumor compared to the control [11] | IC50 [12] [µM] | IC50 [13] [µM] | IC50 [14] [µM] | IC50 [15] [µM] | IC50 [16] [µM]
COc1cc(-c2cc(=O)c3c(O)cc(O)c(C/C=C(\C)CCC=C(C)C)c3o2)ccc1O [FBL-03C] | 17 | 15 | 9.5 |  |  |  |  |  |  |  |  |  |  |  |  | 
COc1cc(-c2cc(=O)c3c(O)c(CC=C(C)C)c(O)cc3o2)ccc1O [FBL-03B] |  |  |  | 10.4 | 13.2 | 19.4 | 115 | 10.4 | 11.6 | 7.05 | significant inhibition of tumor | 9.52 | 15 |  |  | 
COc1cc(-c2cc(=O)c3c(O)cc(O)c(CC=C(C)C)c3o2)ccc1O [FBL-03G] |  |  |  | 6.14 | 20 | 8.7 | 6.64 | 2.53 | 1.78 | 8.69 | significant inhibition of tumor | 12 | 4.09 | 2.49 | 66.3 | 85.4
COc1cc(-c2cc(=O)c3c(O)c(C/C=C(\C)CCC=C(C)C)c(O)cc3o2)ccc1O [FBL-03A] | 27 | 29 | 16 |  |  |  |  |  |  |  |  |  |  |  |  | 
